Experiment: Diffusion of FA through the copolymer membranes (Valia-Chien diffusion apparatus)
Type: physicochemical
Details: membrane of Example 5 composition, thickness 100 μm; PBS, 37° C.; FA 2 mg in donor cell; HPLC at 238 nm
Procedure: The diffusion was carried out using Valia-Chien diffusion apparatus. FA and membranes with a composition described in Example 5 were used. FA (2 mg) and PBS (3.2 mL) were added to each of the donor cells, and 3.2 mL PBS were added in each of the receptor cells. The cells were capped and the temperature was kept at 37° C. using a circulating water bath. At given time intervals, the diffusion media in the receptor cells were removed and replaced by fresh PBS. FA concentration in the release media was determined using a set of HP series 1100 HPLC instruments equipped with a degasser, a binary pump, an auto sampler and a DAD detector. The column used was an Altima C18 (5μ, 250 mm×4.6 mm). The mobile phase was 40% ACN in water and the flow rate was 1.0 mL/m in. The eluted FA was detected at 238 nm. The concentration of FA in the media was directly determined using HPLC. The diffusion rate of FA through the copolymer membranes with a thickness of 100 μm was estimated to be 1.4 μg/cm^2/hour.

CC1(C)O[C@@H]2C[C@H]3[C@@H]4C[C@H](F)C5=CC(=O)C=C[C@]5(C)[C@@]4(F)[C@@H](O)C[C@]3(C)[C@]2(C(=O)CO)O1 [FA, fluocinolone acetonide]
diffusion rate of FA through the copolymer membranes: 1.4 μg/cm^2/hour

Source: US20080299176A1, “DRUG DELIVERY DEVICE COMPRISING CROSSLINKED POLYURETHANE-SILOXANE-CONTAINING COPOLYMERS” (priority 2007, published 2008)
